Measurements taken from patent publication US5648359A, “Tumor necrosis factor production inhibitors” (Sumitomo Pharmaceuticals Company, Limited, priority 1993, dated 1997).

Tests used:
[1] = system: TNF production in mouse peritoneal macrophages; test: Inhibitory effect on TNF production in mouse peritoneal macrophages (50 μM and 100 μM); format: cell-based, mouse (BALB/c); conditions: Peritoneal macrophage, read-out: Inhibition of TNF Production or secretion; for inhibition at 100 µM: 100 μM compound; for inhibition at 50 µM: 50 μM compound
Experimental: (§1) BALB/c mice (5 weeks old, female, Charles River Japan) were intraperitoneally injected with 1 ml of 3% thioglycollate broth. After 4 days, the mice were sacrificed. Peritoneal exudated cells (PECs) were collected from the peritoneal cavity by washing with minimum essential medium (hereinafter abbreviated as MEM, manufactured by Handai Biseibutubyo Kenkyukai, Osaka, Japan) containing 5 U/ml heparin and 1% fetal bovine serum (FBS, manufactured by GIBCO Laboratories Inc.). PECs were washed three times with MEM, suspended with MEM containing 10% FBS. After the viable cells were counted by exclusion of trypan blue dye, the suspension was adjusted at the final concentration of 2×10^6 cells/ml with MEM containing 10% FBS and seeded into a 96-well microplate (Costar, Cambridge, Mass., USA) at 2×10^5 cells/100 μl/well. The PECs were incubated for an hour at 37° C. in a humidified 5% CO2 incubator, and were washed twice with MEM warmed at 37° C. to remove non-adherent cells. Residual adherent cells were used as peritoneal macrophages. After the washing above, 50 μl each/well of MEM containing 10% FBS was added to each well and provided for use in the following experiment.
The powdery compound of the present invention was dissolved in dimethylsulfoxide in a concentration of 30 mM. […] In the peritoneal macrophages obtained above, 50 μl each of the dilution was added to each well to make the total volume 100 μl. Thereafter 100 μl each of lipopolysaccharide (hereinafter abbreviated as LPS, E. coli 0111B4, manufactured by DIFCO, USA) was added to each well in the final concentration of 10 μg/ml. After the cells were incubated at 37° C. for 18 hours in a humidified 5% CO2 incubator, 25 μl of the supernatant in each well was collected.
(§2) The TNF activity in the supernatant collected was determined by bioassay using TNF-sensitive mouse fibroblast cell line L929 cells. That is, 100 μl each of MEM containing 10% FBS was added to each well of a 96-well microplate; using the resulting mixture, 25 μl of the collected supernatant was diluted to 5-fold dilution to final concentrations (concentrations after the following addition of L929 cell suspension) of 10%, 2%, 0.4% and 0.08%.
L929 cells were then suspended (4×10^5 cells/ml) in MEM containing 10% FBS and 1 μg/ml actinomycin D (Sigma Co.) and 100 μl each of the suspension was added to each well of the above microplate at 4×10^4 cells/well and cultured at 37° C. in a humidified 50% CO2. The viable cells were counted by partial modification of the MTT method reported in Monosann et al., T., J. Immunol. Method, 65, 55-63, 1983. The modified MTT method comprises the following steps. One mg/ml of 3-(4,5-dimethylthiazol-2-yl)-2,5-diphenyltetrazolium bromide (hereinafter abbreviated as MTT, manufactured by Sigma Co.) was dissolved in MEM, and 50 μl each of the solution was added to each well of the microplate above. […] After shaking the 96-well microplate for a few minutes, the absorbance in each well was measured with a microplate reader (Corona Co.) at an absorption wavelength of 550 nm. The absorbance correlated to the count of the viable L929 cells and represented the TNF activity in the supernatant. The TNF activity was determined in terms of unit (U)/ml from the calibration curve of absorbance for the TNF activity obtained using mouse recombinant TNF α (TNF-M, manufactured by Genzyme Co.) as a standard. The activity of inhibiting TNF production of each compound, was determined by the following equation. […]

[2] = system: TNF production or secretion in mouse peritoneal macrophages; test: Inhibitory effect on TNF production or secretion in mouse peritoneal macrophages (30 μM); format: cell-based, mouse (BALB/c); conditions: 30 μM compound, LPS 10 μg/ml, 18 hours, TNF by L929 bioassay; for inhibition at 30 µM: Mus musculus
Experimental: Inhibitory effect on TNF production or secretion in mouse peritoneal macrophages (In case drug concentration is 30 μM)
as §1
The powdery compound of the present invention was dissolved in dimethylsulfoxide in a concentration of 30 mM. The solution was then diluted with MEM containing 10% FBS in the final concentration of 30 μM. In the peritoneal macrophages obtained above, 50 μl each of the dilution was added to each well to make the total volume 100 μl. Thereafter 100 μl each of lipopolysaccharide (hereinafter abbreviated as LPS, E. coli 0111B4, manufactured by DIFCO, USA) was added to each well in the final concentration of 10 μg/ml. After the cells were incubated at 37° C. for 18 hours in a humidified 5% CO2 incubator, 25 μl of the supernatant in each well was collected.
as §2
L929 cells were then suspended (4×10^5 cells/ml) in MEM containing 10% FBS and 1 μg/ml actinomycin D (Sigma Co.) and 100 μl each of the suspension was added to each well of the above microplate at 4×10^4 cells/well and cultured at 37° C. in a humidified 50% CO2. The viable cells were counted by partial modification of the MTT method reported in Monosann et al., T., J. Immunol. Method, 65, 55-63, 1983. The modified MTT method comprises the following steps. One mg/ml of 3-(4,5-dimethylthiazol-2-yl)-2,5-diphenyltetrazolium bromide (hereinafter abbreviated as MTT, manufactured by Sigma Co.) was dissolved in MEM, and 50 μl each of the solution was added to each well of the microplate above. After incubating the microplate for further 6 hours, the supernatant was discarded and 100 μl of 0.004N HCl-isopropyl alcohol and then 10 μl of 0.01% sodium laurylsulfate aqueous solution was added to each well. After shaking the 96-well microplate for a few minutes, the absorbance in each well was measured with a microplate reader (Corona Co.) at an absorption wavelength of 550 nm. The absorbance correlated to the count of the viable L929 cells and represented the TNF activity in the supernatant. The TNF activity was determined in terms of unit (U)/ml from the calibration curve of absorbance for the TNF activity obtained using mouse recombinant TNF α (TNF-M, manufactured by Genzyme Co.) as a standard. The activity of inhibiting TNF production of each compound, was determined by the following equation.
Inhibition of TNF production or secretion (%)=(1-TNF activity in the […]

[3] = system: HIV-1; conditions: cited from earlier work
[4] = system: TNF; conditions: cited from earlier work
[5] = system: endotoxin-shocked mice; conditions: mouse, in vivo; cited from earlier work
[6] = system: cancer patients; conditions: human, in vivo; cited from earlier work
[7] = system: experimental allergic encephalomyelitis induced on an animal model; conditions: cited from earlier work

Molecule: CCCCCC(=O)N1C2Cc3cc4c(cc3C1Cc1cc3c(cc12)OCO3)OCO4 [Example 19]
- inhibition at 100 µM [1]: 51%
- inhibition at 30 µM [2]: 16%

Molecule: CC(=O)CCCCn1c(=O)c2c(ncn2C)n(C)c1=O [Pentoxifylline]
- prevention of HIV-1 replication [3]: activity of preventing HIV-1 replication
- TNF inhibitory activity [4]: showing an activity of inhibiting TNF
- prevention of death in endotoxin-shocked mice [5]: activity of preventing death in endotoxin-shocked mice
- sense of well-being / weight loss in cancer patients [6]: activity of improving the sense of well-being or preventing a weight loss in cancer patients
- prevention of experimental allergic encephalomyelitis [7]: activity of preventing experimental allergic encephalomyelitis induced on an animal model

Molecule: CCCCN1C2Cc3cc4c(cc3C1Cc1cc3c(cc12)OCO3)OCO4 [Example 30]
- inhibition at 50 µM [1]: 41%
- inhibition at 100 µM [1]: 78%
- inhibition at 30 µM [2]: -37%

Molecule: NCCCN1C2Cc3cc4c(cc3C1Cc1cc3c(cc12)OCO3)OCO4 [Example 49, 15-(3-aminopropyl)-5,6,12,13-tetrahydrocycloocta[1,2-f:5,6-f']bis[1,S]benzodioxol-5,12-imine]
- inhibition at 50 µM [1]: 21%
- inhibition at 30 µM [2]: -4%

Molecule: NCCCCN1C2Cc3cc4c(cc3C1Cc1cc3c(cc12)OCO3)OCO4 [Example 51, 15-(4-aminobutyl)-5,6,12,13-tetrahydrocycloocta[1,2-f:5,6-f']bis[1,3]benzodioxol-5,12-imine]
- inhibition at 30 µM [2]: -44%

Molecule: O=C(Oc1ccccc1)N1C2Cc3cc4c(cc3C1Cc1cc3c(cc12)OCO3)OCO4 [Example 26]
- inhibition at 30 µM [2]: 27%

Molecule: mixture of 17-acetyl-2-ethoxycarbonyl-6,7,14,15-tetrahydrocycloocta-[1,2-g:5,6-g']bis[1,4]-benzodioxan-6,14-imine and 17-acetyl-3-ethoxycarbonyl-6,7,14,15-tetrahydrocycloocta[1,2-g:5,6-g']bis[1,4]benzodioxan-6,14-imine [Example 6]
- Inhibition of TNF Production or Secretion [2]: 89%

Molecule: CCCC(=O)N1C2Cc3cc4c(cc3C1Cc1cc3c(cc12)OCO3)OCO4 [Example 18]
- inhibition at 30 µM [2]: 86%

Molecule: COCCN1C2Cc3cc4c(cc3C1Cc1cc3c(cc12)OCO3)OCO4 [Example 42, 5,6,12,13-tetrahydro-15-(2-methoxyethyl)cycloocta[1,2-f:5,6-f']bis[1,3]benzodioxol-5,12-imine]
- inhibition at 30 µM [2]: 11%

Molecule: CCCCCOC(=O)N1C2Cc3cc4c(cc3C1Cc1cc3c(cc12)OCO3)OCO4 [Example 25]
- inhibition at 30 µM [2]: 46%

Molecule: C=CCN1C2Cc3cc4c(cc3C1Cc1cc3c(cc12)OCO3)OCO4 [Example 32]
- inhibition at 30 µM [2]: 12%

Molecule: mixture of 17-acetyl-6,7,14,15-tetrahydro-2-hydroxymethylcycloocta[1,2-g:5,6-g']bis[1,4]benzodioxan-6,14-imine and 17-acetyl-6,7,14,15-tetrahydro-3-hydroxymethylcycloocta[1,2-g: 5,6-g']bis[1,4]benzodioxan-6,14-imine [Example 7]
- Inhibition of TNF Production or Secretion [2]: 65%

Molecule: c1c2c(cc3c1OCCO3)C1Cc3cc4c(cc3C(C2)N1)OCCO4 [Example 14]
- inhibition at 30 µM [2]: 63%

Molecule: CCCN1C2Cc3cc4c(cc3C1Cc1cc3c(cc12)OCO3)OCO4 [Example 29]
- inhibition at 100 µM [1]: 81%
- inhibition at 30 µM [2]: 31%
